Assay results as given in patent US9205132B2, “Method of lowering mortality” (CORTHERA, INC., priority 2008, dated 2015).
Entries after “also recorded” stand apart in the source; their conditions may differ.

Legend:
[1] = tested on: patients with acute heart failure (AHF); assay: Patient-reported dyspnea (7-point Likert Scale, 100-mm VAS), Pre-RELAX-AHF trial; assay type: in vivo, human; conditions: for average improvement in dyspnea VAS over the 5 days: corresponds to AUC to Day 5; for average change in dyspnea VAS over the 14 days: corresponds to AUC to Day 14; for Dyspnea AUC Change from baseline to Day 5 (VAS; mm*hr) / Dyspnea AUC Change from baseline to Day 14 (VAS; mm*hr): mean ± SD
Procedure: Study Procedures. The study was approved by the relevant ethics committees, institutional review hoards and regulatory authorities, and conducted under the International Conference on Harmonization Good Clinical Practice guidelines. All patients provided informed written consent prior to participation. […] The placebo used for the study was the same solution as the diluent used to prepare the 100 μg/kg/day dose. The randomization ratio was 3:2:2:2:2, respectively, Relaxin (Corthera, San Mateo, Calif.) was manufactured using recombinant techniques and was identical to the naturally-occurring peptide hormone. By protocol, the study drug infusion was to be terminated if the patient's SBP was reduced to <100 mmHg or by >40 mmHg compared to baseline in two successive measurements, 15 minutes apart. Investigators were not prohibited from utilizing any standard medication, thought necessary to treat patients enrolled in the study, including additional vasodilators, following a 4-hour washout period during which time IV vasodilators, IV pure inotropes and meals were withheld, hemodynamic, renal, and clinical responses to 48 hours of study drug infusion were assessed.
Study Endpoints. […] 4.) Length of initial hospital stay.
Dyspnea Responses. Results are presented via the Visual Analog Score (VAS) and the Likert Score. The VAS score measures a characteristic of attitude that ranges across a continuum of values, for example, the amount of discomfort an AHF patient feels ranges across a continuum from none to an extreme amount of discomfort and/or pain including dyspnea, hypertension, high blood pressure, arrhythmia and reduced renal blood flow. From the patient's perspective this spectrum appears continuous, which the VAS captures. Operationally a VAS is usually a horizontal line, 100 mm in length, anchored by word descriptors at each end (e.g., no discomfort on one end and severe discomfort on the other end). The patients marked on the line the point that they fell represented their perception of their current state. The VAS score is determined by measuring in millimeters from the left hand end of the line to the point that the patient marks (Wewers et al., Research in Nursing and Health 13:227-236, 1990).
The Likert Score is a unidimensional sealing method known in the art, wherein the set of scale items are rated on a numerical (herein 7-point) Disagree-Agree response scale. Each patient was asked to rate each item on the response scale. The final score for the respondents on the scale is the sum of their ratings for all of the items.

[2] = tested on: patients with systemic sclerosis; assay: Clinical trial of relaxin in patients with systemic sclerosis, continuous SQ infusion for six months; assay type: in vivo, human
Source text: Overview. Clinical trials with relaxin have also been conducted on systemic sclerosis patients, 257 human subjects who suffer from systemic sclerosis, a serious fibrotic disease, have been treated with relaxin by continuous and subcutaneous (SQ) infusion for six months. […] These findings support the hypothesis that relaxin administration was associated with balanced systemic and renal vasodilation.

[3] = 30 mcg/kg/d IV 48 h, listed as relaxin

Relaxin
percent moderate or marked improvement in dyspnea (Likert), sustained over 14 days ([1]; 30 μg/kg/day, AHF patients with SBP greater than the median, FIG. 7): about 90%
improvement in dyspnea within 6, 12 and 24 hours of administration ([1]; 30 μg/kg/day, FIG. 12): statistically significant improvement in dyspnea
% moderately/markedly better dyspnea at 6, 12 and 24 hrs (Likert) ([1]; 10 mcg/kg/d IV 48 h): 27.5%
average improvement in dyspnea VAS over the 5 days ([1]; 10 mcg/kg/d IV 48 h): 21 mm
average change in dyspnea VAS over the 14 days ([1]; 10 mcg/kg/d IV 48 h): 10 mm
Dyspnea AUC Change from baseline to Day 5 (VAS; mm*hr) ([1]; 10 mcg/kg/d IV 48 h): 2500 ± 2908 mm*hr
Dyspnea AUC Change from baseline to Day 14 (VAS; mm*hr) ([1]; 10 mcg/kg/d IV 48 h): 6366 ± 10078 mm*hr
% moderately/markedly better dyspnea at 6, 12 and 24 hrs (Likert) ([1]; 30 mcg/kg/d IV 48 h): 40.5%
average improvement in dyspnea VAS over the 5 days ([1]; 30 mcg/kg/d IV 48 h): 22 mm
average change in dyspnea VAS over the 14 days ([1]; 30 mcg/kg/d IV 48 h): 25 mm
% moderately/markedly better dyspnea at 6, 12 and 24 hrs (Likert) [1, 3]: 40.5%
Dyspnea AUC Change from baseline to Day 5 (VAS; mm*hr) ([1]; 30 mcg/kg/d IV 48 h): 2567 ± 2898 mm*hr
Dyspnea AUC Change from baseline to Day 14 (VAS; mm*hr) ([1]; 30 mcg/kg/d IV 48 h): 8214 ± 8712 mm*hr
Dyspnea AUC Change from baseline to Day 5 (VAS; mm*hr) [1, 3]: 2567±2898 mm*hr
Dyspnea AUC Change from baseline to Day 14 (VAS; mm*hr) [1, 3]: 8214±8712 mm*hr
% moderately/markedly better dyspnea at 6, 12 and 24 hrs (Likert) ([1]; 100 mcg/kg/d IV 48 h): 13.5%
average improvement in dyspnea VAS over the 5 days ([1]; 100 mcg/kg/d IV 48 h): 21 mm
average change in dyspnea VAS over the 14 days ([1]; 100 mcg/kg/d IV 48 h): 25 mm
Dyspnea AUC Change from baseline to Day 5 (VAS; mm*hr) ([1]; 100 mcg/kg/d IV 48 h): 2486 ± 2865 mm*hr
Dyspnea AUC Change from baseline to Day 14 (VAS; mm*hr) ([1]; 100 mcg/kg/d IV 48 h): 8227 ± 9707 mm*hr
% moderately/markedly better dyspnea at 6, 12 and 24 hrs (Likert) ([1]; 250 mcg/kg/d IV 48 h): 22.4%
average improvement in dyspnea VAS over the 5 days ([1]; 250 mcg/kg/d IV 48 h): 18 mm
average change in dyspnea VAS over the 14 days ([1]; 250 mcg/kg/d IV 48 h): 21 mm
Dyspnea AUC Change from baseline to Day 5 (VAS; mm*hr) ([1]; 250 mcg/kg/d IV 48 h): 2155 ± 2338 mm*hr
Dyspnea AUC Change from baseline to Day 14 (VAS; mm*hr) ([1]; 250 mcg/kg/d IV 48 h): 6856 ± 7923 mm*hr
time at which a beneficial effect on dyspnea was first seen ([1]; AHF patients with CrCl less than the median, FIG. 8): 6 h
time at which a beneficial effect on dyspnea was first seen ([1]; AHF patients with SBP greater than the median, FIG. 7): 6 h
onset of improvement in dyspnea ([1]; all relaxin-treated AHF patients): ≤ 6 h
serum concentration at which relaxin was shown to be fully effective ([1]; see FIG. 6): 3 to 6 ng/mL
blood pressure [2]: stable decreases in blood pressure
hypotensive events [2]: did not experience any serious hypotensive events; also recorded: None of the patients developed hypotension during dosing
predicted creatinine clearance (renal function) [2]: statistically significant increase in predicted creatinine clearance; also recorded: stable improvement in renal function
